Data reported in the supplement of paper PMC10883282.

Columns and labels:
Assay in all cases: relative viability vs DMSO control (72 h) (fraction); higher = more viable cells
[1] = test system: SK-LMS-1
How it was run: (§1)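 Sarcoma cell lines were plated in 384 wells to reach 80–90% confluence, treated after 24 h with 2.5 µl of serially diluted compound and held 72 h at 37 °C, 5% CO2. Relative viability was taken as percent growth from ATPLite readings, averaged over up to triplicate wells. The values were rescaled so that 1 marks full and 0 marks none.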

[2] = test system: VA-ES-BJ
How it was run: as §1

[3] = test system: KHOS-240S
How it was run: as §1

[4] = test system: A204
How it was run: as §1

[5] = test system: MES-SA
How it was run: as §1

[6] = test system: SW1353
How it was run: as §1

[7] = test system: SK-ES-1
How it was run: as §1

[8] = test system: RD
How it was run: as §1

[9] = test system: SW872
How it was run: as §1

[10] = test system: G401
How it was run: as §1

[11] = test system: HS729
How it was run: as §1

[12] = test system: SW982
How it was run: as §1

CC#CC(=O)N1CCC[C@H]1c1nc(-c2ccc(C(=O)Nc3ccccn3)cc2)c2c(N)nccn12 [Acalabrutinib]
Settings | relative viability
[1], 0.00017 µM | 1
[1], 0.00051 µM | 1.01
[1], 0.00152 µM | 1.03
[1], 0.00457 µM | 1.04
[1], 0.01372 µM | 1.04
[1], 0.04115 µM | 1
[1], 0.1235 µM | 1.03
[1], 0.3704 µM | 1.04
[1], 1.111 µM | 1.06
[1], 3.333 µM | 1.03
[1], 10 µM | 0.944
[2], 0.00017 µM | 1.01
[2], 0.00051 µM | 1.01
[2], 0.00152 µM | 1.03
[2], 0.00457 µM | 1.04
[2], 0.01372 µM | 1.01
[2], 0.04115 µM | 1.01
[2], 0.1235 µM | 1
[2], 0.3704 µM | 1.05
[2], 1.111 µM | 1.08
[2], 3.333 µM | 1.07
[2], 10 µM | 1.05
[3], 0.00017 µM | 1.06
[3], 0.00051 µM | 1.06
[3], 0.00152 µM | 1.07
[3], 0.00457 µM | 1.09
[3], 0.01372 µM | 1.06
[3], 0.04115 µM | 1.06
[3], 0.1235 µM | 1.03
[3], 0.3704 µM | 1.04
[3], 1.111 µM | 1.041
[3], 3.333 µM | 1.04
[3], 10 µM | 1.05
[4], 0.00017 µM | 1.07
[4], 0.00051 µM | 1.07
[4], 0.00152 µM | 1.06
[4], 0.00457 µM | 1.09
[4], 0.01372 µM | 1.1
[4], 0.04115 µM | 1.09
[4], 0.1235 µM | 1.07
[4], 0.3704 µM | 1.05
[4], 1.111 µM | 1.05
[4], 3.333 µM | 1.02
[4], 10 µM | 0.872
[5], 0.00017 µM | 0.914
[5], 0.00051 µM | 0.905
[5], 0.00152 µM | 0.937
[5], 0.00457 µM | 0.914
[5], 0.01372 µM | 0.908
[5], 0.04115 µM | 0.909
[5], 0.1235 µM | 0.912
[5], 0.3704 µM | 0.926
[5], 1.111 µM | 0.909
[5], 3.333 µM | 0.914
[5], 10 µM | 0.907
[6], 0.00017 µM | 0.974
[6], 0.00051 µM | 0.933
[6], 0.00152 µM | 0.942
[6], 0.00457 µM | 0.946
[6], 0.01372 µM | 0.947
[6], 0.04115 µM | 0.944
[6], 0.1235 µM | 0.957
[6], 0.3704 µM | 0.936
[6], 1.111 µM | 0.962
[6], 3.333 µM | 0.8927
[6], 10 µM | 0.827
[7], 0.00017 µM | 0.978
[7], 0.00051 µM | 0.989
[7], 0.00152 µM | 1.04
[7], 0.00457 µM | 1.03
[7], 0.01372 µM | 0.996
[7], 0.04115 µM | 0.998
[7], 0.1235 µM | 0.999
[7], 0.3704 µM | 1.02
[7], 1.111 µM | 1.012
[7], 3.333 µM | 1.02
[7], 10 µM | 0.983
[8], 0.00017 µM | 1.13
[8], 0.00051 µM | 1.13
[8], 0.00152 µM | 1.12
[8], 0.00457 µM | 1.15
[8], 0.01372 µM | 1.13
[8], 0.04115 µM | 1.09
[8], 0.1235 µM | 1.06
[8], 0.3704 µM | 1.06
[8], 1.111 µM | 1.09
[8], 3.333 µM | 1.13
[8], 10 µM | 1.07
[9], 0.00017 µM | 0.999
[9], 0.00051 µM | 1.02
[9], 0.00152 µM | 1.01
[9], 0.00457 µM | 1.01
[9], 0.01372 µM | 0.975
[9], 0.04115 µM | 0.95
[9], 0.1235 µM | 0.979
[9], 0.3704 µM | 0.997
[9], 1.111 µM | 1.04
[9], 3.333 µM | 1.03
[9], 10 µM | 0.987
[10], 0.00017 µM | 0.98
[10], 0.00051 µM | 0.991
[10], 0.00152 µM | 0.997
[10], 0.00457 µM | 1.02
[10], 0.01372 µM | 1.01
[10], 0.04115 µM | 1.01
[10], 0.1235 µM | 0.985
[10], 0.3704 µM | 0.996
[10], 1.111 µM | 1.02
[10], 3.333 µM | 0.997
[10], 10 µM | 0.917
[11], 0.00017 µM | 0.88
[11], 0.00051 µM | 0.865
[11], 0.00152 µM | 0.903
[11], 0.00457 µM | 0.941
[11], 0.01372 µM | 0.866
[11], 0.04115 µM | 0.877
[11], 0.1235 µM | 0.894
[11], 0.3704 µM | 0.868
[11], 1.111 µM | 0.889
[11], 3.333 µM | 0.88
[11], 10 µM | 0.95
[12], 0.00017 µM | 1.048
[12], 0.00051 µM | 1.037
[12], 0.00152 µM | 1.05
[12], 0.00457 µM | 1.05
[12], 0.01372 µM | 1.05
[12], 0.04115 µM | 1.034
[12], 0.1235 µM | 1.02
[12], 0.3704 µM | 1.02
[12], 1.111 µM | 1.02
[12], 3.333 µM | 1.01
[12], 10 µM | 0.955
